# In patent US20260027087A1, “DOSING REGIMENS COMPRISING A KAT6 INHIBITOR FOR THE TREATMENT OF CANCER” (PFIZER INC., priority 2022, published 2026):
# [1] = as of 23 Mar. 2022, 31 patients dosed
structure (smiles),measurement,setting,value
"COc1ccccc1S(=O)(=O)Nc1noc2cc(Cn3cccn3)cc(OC)c12 [COMPOUND A, 2-Methoxy-N-{4-methoxy-6-[(1H-pyrazol-1-yl)methyl]-1,2-benzoxazol-3-yl}benzene-1-sulfonamide]","COVID-19, all-causality SAE, by patient frequency",as of 23 Mar. 2022,2
same,"COVID-19, all-causality Grade 3 TEAE",[1],3.2%
same,"Pneumonitis, Grade 5 TEAE",[1],3.2%
same,"Pneumonitis, Grade 5 treatment-related AE",[1],3.2%
same,"Urinary tract infection, all-causality Grade 3 TEAE",[1],3.2%
same,MTD,cut-off 30 Sep. 2022,not identified
same,"Alanine aminotransferase increased, all-causality Grade 3 TEAE","human, in vivo",6.5%
same,"Alanine aminotransferase increased, all-causality TEAE, any grade","human, in vivo",25.8%
same,"Anaphylactic reaction, all-causality Grade 3 TEAE","human, in vivo",3.2%
same,"Anemia, Grade 3 treatment-related AE","human, in vivo",16.1%
same,"Anemia, TRAE, any grade","human, in vivo",54.8%
same,"Anemia, all-causality Grade 3 TEAE","human, in vivo",16.1%
same,"Anemia, all-causality TEAE, any grade","human, in vivo",54.8%
same,"Aspartate aminotransferase increased, all-causality TEAE, any grade","human, in vivo",29.0%
same,"Bone pain, all-causality SAE, by patient frequency","human, in vivo",1
same,"Diarrhea, Grade 3 treatment-related AE","human, in vivo",3.2%
same,"Diarrhea, TRAE, any grade","human, in vivo",29.0%
same,"Diarrhea, all-causality Grade 3 TEAE","human, in vivo",3.2%
same,"Diarrhea, all-causality TEAE, any grade","human, in vivo",35.5%
same,"Dysgeusia, TRAE, any grade","human, in vivo",80.6%
same,"Dysgeusia, all-causality TEAE, any grade","human, in vivo",83.9%
same,"Dysphagia, all-causality SAE, by patient frequency","human, in vivo",1
same,"Embolism, Grade 3 treatment-related AE","human, in vivo",3.2%
same,"Embolism, all-causality Grade 3 TEAE","human, in vivo",3.2%
same,"Embolism, all-causality SAE, by patient frequency","human, in vivo",1
same,"Fatigue, all-causality Grade 3 TEAE","human, in vivo",3.2%
same,"Fatigue, all-causality TEAE, any grade","human, in vivo",25.8%
same,"Flank pain, all-causality Grade 3 TEAE","human, in vivo",3.2%
same,"Flank pain, all-causality SAE, by patient frequency","human, in vivo",1
same,Grade 4 treatment-related AEs,"human, in vivo",no Grade 4 treatment-related AEs
same,"Haematuria, all-causality Grade 3 TEAE","human, in vivo",3.2%
same,"Haematuria, all-causality SAE, by patient frequency","human, in vivo",1
same,"Hypercalcaemia, Grade 4 TEAE","human, in vivo",3.2%
same,"Hypotension, all-causality Grade 3 TEAE","human, in vivo",6.5%
same,"Hypotension, all-causality SAE, by patient frequency","human, in vivo",2
same,"Hypotension, treatment-related SAE, by patient frequency","human, in vivo",1
same,"Lymphocyte count decreased, Grade 3 treatment-related AE","human, in vivo",3.2%
same,"Lymphocyte count decreased, all-causality Grade 3 TEAE","human, in vivo",6.5%
same,"Neutrophil count decreased/Neutropenia, Grade 3 treatment-related AE","human, in vivo",29.1%
same,"Neutrophil count decreased/Neutropenia, TRAE, any grade","human, in vivo",51.6%
same,"Neutrophil count decreased/Neutropenia, all-causality Grade 3 TEAE","human, in vivo",29.1%
same,"Neutrophil count decreased/Neutropenia, all-causality TEAE, any grade","human, in vivo",51.6%
same,"Platelet count decreased, TRAE, any grade","human, in vivo",22.6%
same,"Platelet count decreased, all-causality TEAE, any grade","human, in vivo",22.6%
same,"Pneumonitis, all-causality SAE, by patient frequency","human, in vivo",1
same,"Pneumonitis, treatment-related SAE, by patient frequency","human, in vivo",1
same,"Pulmonary embolism, all-causality Grade 3 TEAE","human, in vivo",3.2%
same,"Thrombocytopenia, Grade 3 treatment-related AE","human, in vivo",3.2%
same,"Thrombocytopenia, all-causality Grade 3 TEAE","human, in vivo",3.2%
same,"White blood cell count decreased, Grade 3 treatment-related AE","human, in vivo",9.7%
same,"White blood cell count decreased, TRAE, any grade","human, in vivo",29.0%
same,"White blood cell count decreased, all-causality Grade 3 TEAE","human, in vivo",9.7%
same,"White blood cell count decreased, all-causality TEAE, any grade","human, in vivo",29.0%
same,"all-causality SAEs, Total Number of Cases","human, in vivo",9
same,"all-causality SAEs, Total Number of Subjects","human, in vivo",8
same,"all-causality SAEs, Total Number of events","human, in vivo",10
same,patients with at least one TEAE,"human, in vivo",31 patients
same,patients with at least one treatment-related adverse event (TRAE),"human, in vivo",31 patients
same,severity of TRAEs,"human, in vivo",majority of TRAEs were G1-2
same,"treatment-related SAEs, Total Number of Cases","human, in vivo",2
same,"treatment-related SAEs, Total Number of Subjects","human, in vivo",2
same,"treatment-related SAEs, Total Number of events","human, in vivo",2
same,RDE,"human, in vivo, 28 days",5 mg QD
same,Recommended dose for expansion (RDE),"human, in vivo, 28 days",5 mg QD
same,kind of DLTs,"human, in vivo, 28 days",Grade 3 neutropenia
